Assay results taken from PMC10907358, “Identification of oleic acid as an endogenous ligand of GPR3” (Cell Research, 2024).
Values joined by “and” are separate entries in the source; they are usually repeats but may differ in a detail not shown here. Equal values may be shown once. “Also recorded” adds a separate entry of the source. One block for each compound: values may come before it.

Columns and labels:
GPR3 [1] = target: T1, GPR3 (Homo sapiens, UniProt P46089); experiment: Inhibition of OA-induced GPR3 activation, GloSensor cAMP assay in GPR3 stably expressing AD293 cell line; type: cell-based; details: OA concentration fixed at 300 μM; read-out: IC50 of OA-induced receptor activation
T1 construct: expressed in transfected cells
T1 sequence (P46089 whole entry): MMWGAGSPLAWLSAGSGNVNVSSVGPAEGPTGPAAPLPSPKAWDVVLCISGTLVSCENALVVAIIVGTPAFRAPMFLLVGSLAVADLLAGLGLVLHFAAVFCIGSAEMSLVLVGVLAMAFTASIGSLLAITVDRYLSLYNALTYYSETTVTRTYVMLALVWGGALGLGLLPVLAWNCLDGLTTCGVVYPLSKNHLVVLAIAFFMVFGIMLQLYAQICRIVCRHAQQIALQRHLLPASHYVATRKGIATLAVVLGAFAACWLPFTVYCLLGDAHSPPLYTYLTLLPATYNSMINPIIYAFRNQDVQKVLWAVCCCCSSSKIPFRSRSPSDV
Protocol: (§1) The GloSensor cAMP assay was performed according to the instructions of Promega. AD293 cells were split into 6-well plate (300,000 cells/mL) and then transfected with the pGloSensor™-22F cAMP plasmid and pcDNA3-GPR3 plasmid by Lipofectamine 2000, at a ratio of 2:1 (μL:μg). 24 h after transfection, cells were split into 96-well plate for another 24 h incubation. After removal of cell medium, 90 μL of 3% v/v (the GloSensor cAMP reagent vs serum-free medium) substrate was added into each well. After 2 h incubation at RT, background measurements were taken, and then 10 μL 10× stock compounds were added for the second measurements of ligand activation via EnVision 2105 (PerkinElmer). Relative cAMP level was calculated by the cAMP level after addition of ligand divided by the cAMP level before addition of ligand (basal level). Stock FAs (i.e., 10–50 mM) were solubilized in DMSO, then diluted in cell culture buffer to designated concentrations and sonicated to ensure that they were evenly distributed in the buffer before being added to cells.
(§2) AD293 cells were split into 6-well plate (300,000 cells/mL), and then transfected with the pGloSensor™-22F cAMP plasmid and the pcDNA6-GPR3-3× FLAG plasmid (WT receptor or the mutants, F120A^3.36, W260A^6.48, L283F^7.39, A201W^5.46, Y280A^7.36, H96A^2.60 and H96A^2.60/Y280A^7.36) by Lipofectamine 2000 at a ratio of 2:1 (μL:μg). […]

GPR3 [2] = target: T1, GPR3; experiment: GloSensor cAMP assay in GPR3 stably expressing AD293 cell line (agonist mode); type: cell-based; details: for Emax compared to Emax of OA: cAMP assay
Protocol: as §1
AD293 cells were split into 6-well plate (300,000 cells/mL), and then transfected with the pGloSensor™-22F cAMP plasmid and the pcDNA6-GPR3-3× FLAG plasmid (WT receptor or the mutants, F120A^3.36, W260A^6.48, L283F^7.39, A201W^5.46, Y280A^7.36, H96A^2.60 and H96A^2.60/Y280A^7.36) by Lipofectamine 2000 at a ratio of 2:1 (μL:μg). Geneticin (2 mg/mL) and blasticidin (20 μg/mL) were used to select colonies that stably express both GPR3 and GloSensor 22F. The cell culture medium containing antibiotics was changed every 2 days till well-separated colonies appeared. Then individual single colony was picked by a small piece of sterilized filter paper soaked with trypsin and separately cultured in a single well of 24-well plate. At least 24 candidate colonies were selected for each mutant and WT. After several days of culture, each colony was triplicated. One of the triplicates was used for western blot analysis, another for the GloSensor cAMP assay, and the remaining one was stored for staining. The colonies with top scores in both expression (western blot) and functional assay were selected as the representative colonies for each mutant or WT for further analysis.

GPR6 = target: T2, GPR6 (Homo sapiens, UniProt P46095); experiment: GloSensor cAMP assay in GPR6 stably expressing AD293 cell line; type: cell-based; details: lipid concentration 300 μM
T2 construct: FLAG; expressed in transfected cells
T2 sequence (P46095 whole entry, species assumed): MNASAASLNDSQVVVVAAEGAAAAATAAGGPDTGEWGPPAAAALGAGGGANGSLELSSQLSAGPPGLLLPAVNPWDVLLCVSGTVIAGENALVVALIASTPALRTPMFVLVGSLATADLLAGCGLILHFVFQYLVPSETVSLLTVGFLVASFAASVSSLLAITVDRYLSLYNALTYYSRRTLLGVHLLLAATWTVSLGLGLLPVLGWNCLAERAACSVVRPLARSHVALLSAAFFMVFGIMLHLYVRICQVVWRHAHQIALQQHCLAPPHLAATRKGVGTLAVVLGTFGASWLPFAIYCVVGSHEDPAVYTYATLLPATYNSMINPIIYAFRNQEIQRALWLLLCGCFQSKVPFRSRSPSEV

[3] = system: Gs/cAMP/PKA signaling in iBAT; experiment: Ex vivo iBAT of WT mice, p-PKA substrate immunoblot; type: cell-based, mouse; details: up to 4 h
Protocol: iBAT was isolated from C57BL/6N mice at 4-6 weeks old and cut into 10 mg pieces. […] Another group of iBAT pieces were incubated in DMEM medium at 4 °C, and treated with different doses of OA (0 mM, 1 mM, 5 mM) for 4 h. OA (Sigma, O1008) was dissolved in serum-free DMEM (Gibco, high glucose, 12100046) by using an ultrasonic cleaner at 40 °C for 10 min.

GPR120 = system: GPR120; parameters: method as in PMID 36862765; details: cited from earlier work
GPR3 W260A mutant = target: T3, GPR3 W260A mutant (Homo sapiens, UniProt P46089, W260A); experiment: OA dose-response, GloSensor cAMP assay, AD293 stably expressing GPR3 W260A mutant; type: cell-based; details: W260A stable line
T3 construct: expressed in transfected cells
T3 sequence (P46089 whole entry W260A): as the sequence (P46089 whole entry) above, with W260A counted along it
Protocol: as §1, §2

GPR3 F120A mutant = target: T4, GPR3 F120A mutant (Homo sapiens, UniProt P46089, F120A); experiment: OA dose-response, GloSensor cAMP assay, AD293 stably expressing GPR3 F120A mutant; type: cell-based; details: Table S3, F120A
T4 construct: expressed in transfected cells
T4 sequence (P46089 whole entry F120A): as the sequence (P46089 whole entry) above, with F120A counted along it
Protocol: as §1, §2

GPR3 Y280A mutant = target: T5, GPR3 Y280A mutant (Homo sapiens, UniProt P46089, Y280A); experiment: OA dose-response, GloSensor cAMP assay, AD293 stably expressing GPR3 Y280A mutant; type: cell-based; details: Table S3, Y280A
T5 construct: expressed in transfected cells
T5 sequence (P46089 whole entry Y280A): as the sequence (P46089 whole entry) above, with Y280A counted along it
Protocol: as §1, §2

GPR3 L283F mutant = target: T6, GPR3 L283F mutant (Homo sapiens, UniProt P46089, L283F); experiment: OA dose-response, GloSensor cAMP assay, AD293 stably expressing GPR3 L283F mutant; type: cell-based; details: Table S3, L283F
T6 construct: expressed in transfected cells
T6 sequence (P46089 whole entry L283F): as the sequence (P46089 whole entry) above, with L283F counted along it
Protocol: as §1, §2

GPR3 H96A mutant = target: T7, GPR3 H96A mutant (Homo sapiens, UniProt P46089, H96A); experiment: OA dose-response, GloSensor cAMP assay, AD293 stably expressing GPR3 H96A mutant; type: cell-based; details: Table S3, H96A
T7 construct: expressed in transfected cells
T7 sequence (P46089 whole entry H96A): as the sequence (P46089 whole entry) above, with H96A counted along it
Protocol: as §1, §2

GPR3 A201W mutant = target: T8, GPR3 A201W mutant (Homo sapiens, UniProt P46089, A201W); experiment: OA dose-response, GloSensor cAMP assay, AD293 stably expressing GPR3 A201W mutant; type: cell-based; details: Table S3, A201W
T8 construct: expressed in transfected cells
T8 sequence (P46089 whole entry A201W): as the sequence (P46089 whole entry) above, with A201W counted along it
Protocol: as §1, §2

GPR3 H96A/Y280A mutant = target: T9, GPR3 H96A/Y280A mutant (Homo sapiens, UniProt P46089, H96A/Y280A); experiment: OA dose-response, GloSensor cAMP assay, AD293 stably expressing GPR3 H96A/Y280A mutant; type: cell-based; details: H96A/Y280A stable line
T9 construct: expressed in transfected cells
T9 sequence (P46089 whole entry H96A/Y280A): as the sequence (P46089 whole entry) above, with H96A, Y280A counted along it
Protocol: as §1, §2

GPR12 = target: T10, GPR12 (Homo sapiens, UniProt P47775); experiment: GloSensor cAMP assay in GPR12 stably expressing AD293 cell line; type: cell-based; details: lipid concentration 300 μM
T10 construct: FLAG; expressed in transfected cells
T10 sequence (P47775 1-334): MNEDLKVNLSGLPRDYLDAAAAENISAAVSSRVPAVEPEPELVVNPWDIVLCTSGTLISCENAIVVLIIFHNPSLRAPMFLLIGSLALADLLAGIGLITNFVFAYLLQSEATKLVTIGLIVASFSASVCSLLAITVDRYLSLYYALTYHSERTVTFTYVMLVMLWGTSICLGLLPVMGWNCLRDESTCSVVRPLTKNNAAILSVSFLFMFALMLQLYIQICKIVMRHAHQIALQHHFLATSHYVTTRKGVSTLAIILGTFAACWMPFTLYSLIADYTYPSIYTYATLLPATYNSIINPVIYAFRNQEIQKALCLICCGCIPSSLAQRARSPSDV

[4] = system: Gs/cAMP/PKA signaling in Gpr3 KO iBAT; experiment: Ex vivo iBAT of Gpr3 KO mice, p-PKA substrate immunoblot; type: cell-based, mouse; details: OA 1 mM, 4 h
Protocol: iBAT was isolated from C57BL/6N mice at 4–6 weeks old and cut into 10 mg pieces. 10 mg iBAT was further cut into four pieces.[67] iBAT pieces were incubated in Dulbecco’s modified eagle medium (DMEM) at 4 °C, and treated with OA (1 mM) for different times (0 h, 1 h, 2 h, and 4 h). Another group of iBAT pieces were incubated in DMEM medium at 4 °C, and treated with different doses of OA (0 mM, 1 mM, 5 mM) for 4 h. OA (Sigma, O1008) was dissolved in serum-free DMEM (Gibco, high glucose, 12100046) by using an ultrasonic cleaner at 40 °C for 10 min. p-(S/T)PKA substrate and GAPDH levels were measured by immunoblotting, and quantified by densitometry using ImageJ. iBAT was also isolated from WT and Gpr3 KO mice at 4–6 weeks old and cut into 10 mg pieces. 10 mg iBAT was further cut into four pieces. iBAT pieces were incubated in DMEM medium at 4 °C, and treated with or without OA (1 mM) for 4 h. p-(S/T)PKA substrate and GAPDH levels were measured by immunoblotting, and quantified by ImageJ.
To generate Gpr3 complete KO mice rapidly, we performed one-step complete knockout based on CRISPR/Cas9 systems, which was described previously.[68] Briefly, four adjacent single-guide RNAs (sgRNAs) (spaced 50–100 bp apart; sgRNA1: […]; sgRNA2: […]; sgRNA3: […]; sgRNA4: […]) that target key exon of Gpr3 were designed. […]

[5] = parameters: method as in PMID 7722695, PMID 18059405; details: feeding rats with OA; cited from earlier work
[6] = Table S2, relative cAMP level, at 500 μM (FA 12:0, 16:1, 18:0, OEA 18:1, OLM 18:1), 450 μM (FA 18:1), 400 μM (FA 16:0), 300 μM (FA 22:0, 18:2), 100 μM (FAME 18:0, FAEE 18:0, lysophospholipids), 3 μM (LTB4)
[7] = cAMP induction, GPR3 stably expressing AD293
[8] = WT iBAT at 4 °C, lipid 1 mM (OA also 5 mM)
[9] = Table S3, WT receptor stable line, OA dose-response

SMILES: CC(C)Oc1cc(Cl)ccc1CNc1cc(-c2ccccc2)nc2ncnn12 [AF64394]
IC50 (GPR3 [1]): 0.171 µM

SMILES: CCCCCCCCCCCCCCCCCCCCCC(=O)O [BEH, behenic acid]
cAMP induction activity (in words) (GPR3 [2]; GPR3 stably expressing AD293): no activity at all; also recorded: failed to activate the receptor | maximum response (GPR3 [2]; [6]): 1.0

SMILES: c1ccc2c(c1)[I+]c1ccccc1-2 [DPI, diphenyleneiodonium chloride]
Emax compared to Emax of OA (GPR3 [2]): higher Emax

SMILES: CCCCCCCC/C=C\CCCCCCCC(=O)O [OA, oleic acid]
maximum response (GPR3 [2]; [6]): 164.1 | EC50 (GPR3 [2]; [9]): 293 µM | maximum response (GPR3 [2]; [9]): 186.6 | EC50 (GPR3 [2]; [7]): 299 µM and 300 µM | response to OA (in words) (GPR3 W260A mutant): completely lost their response to OA | EC50 (GPR3 F120A mutant): 252 µM | maximum response (GPR3 F120A mutant): 23.67 | EC50 (GPR3 Y280A mutant): 322 µM | maximum response (GPR3 Y280A mutant): 61.91 | maximum response (GPR3 L283F mutant): 39.13 | EC50 (GPR3 H96A mutant): 255 µM | maximum response (GPR3 H96A mutant): 83.68 | EC50 (GPR3 A201W mutant): 291 µM | maximum response (GPR3 A201W mutant): 157.9 | Emax compared to WT receptor (in words) (GPR3 H96A/Y280A mutant): lower Emax than the WT receptor | GPR12 activation (in words) (GPR12): strongest effect on GPR12 activation | Gs/cAMP/PKA signaling (phosphorylation of PKA substrates) [3, 8]: robust increase of Gs/cAMP/PKA signaling; also recorded: substantially increased Gs/cAMP/PKA signaling | Gs/cAMP/PKA signaling (phosphorylation of PKA substrates) ([3]; WT iBAT at 37 °C, OA 1 mM, 5 mM): to a lesser extent than in the samples treated at 4 °C | induction of Gs/cAMP/PKA signaling by OA [4]: completely blocked | EC50 (GPR120): 40.6 µM | thermogenesis and body weight [5]: induces thermogenesis and reduces body weight

Second part, led by results:

maximum response (GPR3 [2]; [6]): 0.6
SMILES: CCCCCCCCCCCCCCCCCC(=O)OCC [ETS, ethyl stearate]
cAMP induction activity (in words) (GPR3 [2]; GPR3 stably expressing AD293): completely abolished receptor activation; also recorded: failed to activate the receptor

cAMP induction activity (in words) (GPR3 [2]; GPR3 stably expressing AD293): fully activate GPR3 | maximum response (GPR3 [2]; [6]): 204.5 | Emax compared to Emax of OA (GPR3 [2]): higher Emax than OA | EC50 (GPR3 [2]; [7]): 320 µM | GPR6 activation (in words) (GPR6): strongly activated GPR6
SMILES: CCCCCCCCCCCC(=O)O [LAU, lauric acid]

maximum response (GPR3 [2]; [6]): 2.9
SMILES: CCCCC/C=C\C/C=C\CCCCCCCC(=O)O [LIN, Linoleic acid]
cAMP induction activity (in words) (GPR3 [2]; GPR3 stably expressing AD293): failed to activate the receptor; also recorded: almost no activity | Gs/cAMP/PKA signaling (phosphorylation of PKA substrates) [3, 8]: neither STE nor LIN induced Gs/cAMP/PKA signaling | EC50 (GPR120): 57.4 µM

cAMP induction activity (in words) (GPR3 [2]; GPR3 stably expressing AD293): failed to activate GPR3 | maximum response (GPR3 [2]; [6]): 0.8
SMILES: CCCCC/C=C\C[C@@H](O)/C=C/C=C/C=C\[C@@H](O)CCCC(=O)O [LTB4, leukotriene B4]

maximum response (GPR3 [2]; [6]): 0.9
SMILES: CCCCCCCCCCCCCCCCCC(=O)OC [MES, methyl stearate]
cAMP induction activity (in words) (GPR3 [2]; GPR3 stably expressing AD293): completely abolished receptor activation; also recorded: failed to activate the receptor
